The molecules below were run against T1, CXCR4 (Homo sapiens, UniProt P61073) (assay: CXCR4-binding inhibition activity (125I-SDF-1α binding to MT-4 cells)). Conditions: 0.1 μM test material, ligand 125I-SDF-1α, 2 hours under ice cold condition.
T1 construct: endogenous in cells; host or cells: MT-4 cells
Description: CXCR4-Binding Inhibition Activity
MT-4 cells (5×10^6/0.2 ml/well) were cultured on a 24-well microtiter plate. After the cells were incubated for 24 hours at 37° C. in a carbon dioxide gas incubator, a culture mediumwas replaced with a buffer solution (RPMI-1640 containing 0.1% BSA). Together with a ligand ^125I-SDF-1α (specific activity: 2,2000 Ci/mmol; DAIICHI PURE CHEMICALS CO. ,LTD. (Tokyo)), various concentrations of test materials were subjected to a binding reaction for 2 hours under ice cold condition.

T1 sequence (P61073 whole entry): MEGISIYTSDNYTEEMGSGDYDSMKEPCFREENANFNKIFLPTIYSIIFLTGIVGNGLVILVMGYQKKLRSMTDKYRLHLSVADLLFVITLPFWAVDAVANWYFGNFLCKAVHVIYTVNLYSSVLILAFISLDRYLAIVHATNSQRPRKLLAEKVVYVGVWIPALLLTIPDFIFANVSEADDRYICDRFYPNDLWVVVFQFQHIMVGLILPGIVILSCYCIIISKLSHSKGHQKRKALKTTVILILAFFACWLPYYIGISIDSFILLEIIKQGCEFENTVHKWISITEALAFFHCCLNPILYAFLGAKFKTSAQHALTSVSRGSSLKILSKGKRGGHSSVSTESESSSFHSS

| Structure (SMILES) | inhibition rate (binding-inhibition % at 0.1 μM) |
| --- | --- |
| Cn1cccc1CNCCC[C@H](NC(=O)c1ccc(CNCc2ccccn2)cc1)C(=O)NCc1cccc2ccccc12 [Compound No. 5, (S)-2-(4-(N-2-picolylaminomethyl)benzoylamino)-5-((1-methylpyrrol-2-ylmethyl)amino)valerate 1-naphthalenemethylamide] | 26.4% |
| O=C(N[C@@H](CCCNCc1ccccn1)C(=O)NCc1cccc2ccccc12)c1ccc(CNCc2ccccn2)c2ccccc12 [Compound No. 27, (S)-2-(4-(N-2-picolylaminomethyl)naphthoylamino)-5-(2-picolylamino)valerate 1-naphthalenemethylamide] | 82.1% |
| O=C(N[C@@H](CCCNCc1ncc[nH]1)C(=O)NCc1cccc2ccccc12)c1ccc(CNCc2ncc[nH]2)c2ccccc12 [Compound No. 28, (S)-2-(4-((imidazol-2-ylmethyl)aminomethyl)naphthoylamino)-5-((imidazol-2-ylmethyl)amino)valerate 1-naphthalenemethylamide] | 78.1% |
| Cn1ccnc1CNCCC[C@H](NC(=O)c1ccc(CNCc2nccn2C)c2ccccc12)C(=O)NCc1cccc2ccccc12 [Compound No. 29, (S)-2-(4-((1-methylimidazol-2-ylmethyl)aminomethyl)naphthoylamino)-5-((1-methylimidazol-2-ylmethyl)amino)valerate 1-naphthalenemethylamide] | 56.8% |
| O=C(N[C@@H](CCCNC1CCCc2cccnc21)C(=O)NCc1cccc2ccccc12)c1ccc(CNCc2ccccn2)c2ccccc12 (stereo partly drawn) [Compound No. 38, (2S)-2-(4-(N-2-picolylaminomethyl)naphthoylamino)-5-(5,6,7,8-tetrahydroquinolin-8-ylamino)valerate 1-naphthalenemethylamide] | 90.0% |
| O=C(N[C@@H](CCCNCc1ccccn1)C(=O)NCc1cccc2ccccc12)c1ccc(CNCc2ncc[nH]2)c2ccccc12 [Compound No. 40, (S)-2-(4-((N-imidazol-2-ylmethyl)aminomethyl)naphthoylamino)-5-(2-picolylamino)valerate 1-naphthalenemethylamide] | 85.3% |
| NC(N)=NCCC[C@H](NC(=O)c1ccc(CNCc2ccccn2)cc1)C(=O)NCc1cccc2ccccc12 [Compound No. 43, N^α-(4-(N-2-picolylaminomethyl)benzoyl)-L-arginine 1-naphthalenemethylamide] | 43.6% |
| N=C(N)NCCC[C@H](NC(=O)c1ccc(CNCc2ccccn2)c2ccccc12)C(=O)NCc1cccc2ccccc12 [Compound No. 44, N^α-(4-(N-2-picolylaminomethyl)naphthoyl)-L-arginine 1-naphthalenemethylamide] | 88.1% |
| N=C(N)NCCC[C@H](NC(=O)c1ccc(CNCc2ncc[nH]2)c2ccccc12)C(=O)NCc1cccc2ccccc12 [Compound No. 45, N^α-(4-((N-imidazol-2-ylmethyl)aminomethyl)naphthoyl)-L-arginine 1-naphthalenemethylamide] | 95.8% |
| O=C(N[C@@H](CCCN[C@@H]1CCCc2cccnc21)C(=O)NCc1cccc2ccccc12)c1ccc(CNCc2ccccn2)c2ccccc12 [Compound No. 55, (2S)-2-(4-(N-2-picolylaminomethyl)naphthoylamino)-5-((8R)-5,6,7,8-tetrahydroquinolin-8-ylamino)valerate 1-naphthalenemethylamide] | 94.6% |
| C[C@H](NC(=O)[C@H](CCCNCc1ccccn1)NC(=O)c1ccc(CNCc2ncc[nH]2)c2ccccc12)c1cccc2ccccc12 [Compound No. 56] | 69.9% |
| C[C@@H](NC(=O)[C@H](CCCNCc1ccccn1)NC(=O)c1ccc(CNCc2ncc[nH]2)c2ccccc12)c1cccc2ccccc12 [Compound No. 58] | 52.0% |
| O=C(N[C@@H](CCCNCc1ccccn1)C(=O)NCc1cccc2ccccc12)c1ccc(CNCc2ccccn2)cc1 [Compound No. 60, (S)-2-(4-(N-2-picolylaminomethyl)benzoylamino)-5-(N-2-picolylamino)valerate 1-naphthalenemethylamide] | 16.8% |
| O=C(N[C@@H](CCNCc1ccccn1)C(=O)NCc1cccc2ccccc12)c1ccc(CNCc2ccccn2)cc1 [Compound No. 61, (S)-2-(4-(N-2-picolylamino)methylbenzoylamino)-4-(N-2-picolylamino)lactate 1-naphthalenemethylamide] | 32.9% |
| C[C@H](NC(=O)[C@H](CCCNC1CCCc2cccnc21)NC(=O)c1ccc(CNCc2ccccn2)nc1)c1cccc2ccccc12 (stereo partly drawn) [Compound No. 83, (2S)-2-(2-(N-2-picolylaminomethyl)pyridin-5-ylcarbonyl)amino-5-(5,6,7,8-tetrahydroquinolin-8-yl)amino valerate(1′S)-1′-(1-naphthyl)ethylamide] | 78.0% |
| C[C@H](NC(=O)[C@H](CCCNC1CCCc2cccnc21)NC(=O)c1ccc(CNCc2ccccn2)c2ccccc12)c1cccc2ccccc12 (stereo partly drawn) [Compound No. 85, (2S)-2-(4-(N-2-picolylaminomethyl)naphthoyl)amino-5-(5,6,7,8-tetrahydroquinolin-8-yl)amino valerate(1′S)-1′-(1-naphthyl)-ethylamide] | 90.7% |
| C[C@H](NC(=O)[C@H](CCCNCc1nccn1C)NC(=O)c1ccc(CNCc2nccn2C)c2ccccc12)c1cccc2ccccc12 [Compound No. 87] | 57.9% |
| O=C(N[C@@H](CCCNC1CCCc2cccnc21)C(=O)NCc1cccc2ccccc12)c1ccc(CNc2ccccn2)c2ccccc12 (stereo partly drawn) [Compound No. 104, (2S)-2-(4-(2-pyridyl)aminomethylnaphthalene-1-carbonyl)anmino-5-(5,6,7,8-tetrahydroquinolin-8-yl)amino valerate 1-naphthylmethylamide] | 40.6% |

Now from value to molecule:

| inhibition rate (binding-inhibition % at 0.1 μM) | Structure (SMILES) |
| --- | --- |
| 75.3% | O=C(N[C@@H](CCCNC1CCCc2cccnc21)C(=O)NCc1cccc2ccccc12)c1ccc(CNCc2ncc[nH]2)s1 (some centres unmarked) [Compound No. 16] |
| 73.8% | O=C(N[C@@H](CCCNC1CCCc2cccnc21)C(=O)NCCc1c[nH]c2ccccc12)c1ccc(CNCc2ncc[nH]2)c2ccccc12 (stereo partly drawn) [Compound No. 19, (2S)-2-(4-((N-imidazol-2-ylmethyl)aminomethyl)naphthoylamino)-5-(5,6,7,8-tetrahydroquinolin-8-ylamino)2-(3-indolyl)ethylamide valerate] |
| 12.8% | O=C(N[C@@H](CCCNCc1ncc[nH]1)C(=O)NCc1cccc2ccccc12)c1ccc(CNCc2ncc[nH]2)cc1 [Compound No. 21, (S)-2-(4-((imidazol-2-ylmethyl)aminomethyl)benzoylamino)-5-((imidazol-2-ylmethyl)amino)valerate 1-naphthalenemethylamide] |
| 78.6% | O=C(N[C@@H](CCCNC1CCCc2cccnc21)C(=O)NCc1cccc2ccccc12)c1ccc(CNC2CCCc3cccnc32)c2ccccc12 (stereo partly drawn) [Compound No. 26, (2S)-2-(4-(5,6,7,8-tetrahydroquinolin-8-ylaminomethyl)naphthoyl)amino-5-(5,6,7,8-tetrahydroquinolin-8-ylamino)valerate 1-naphthalenemethylamide] |
| 60.9% | Cn1cccc1CNCCC[C@H](NC(=O)c1ccc(CNCc2nccn2C)cc1)C(=O)NCc1cccc2ccccc12 [Compound No. 30, (S)-2-(4-((1-methylimidazol-2-ylmethyl)aminomethyl)benzoylamino)-5-((1-methylpyrrol-2-ylmethyl)amino)valerate 1-naphthalenemethylamide] |
| 71.5% | N=C(N)NCCC[C@H](NC(=O)c1ccc(CNCc2ncc[nH]2)cc1)C(=O)NCc1cccc2ccccc12 [Compound No. 53, N^α-(4-((imidazol-2-ylmethyl)aminomethyl)benzoyl)-L-arginine 1-naphthalenemethylamide] |
| 86.0% | C[C@@H](NC(=O)[C@H](CCCNC1CCCc2cccnc21)NC(=O)c1ccc(CNCc2ncc[nH]2)c2ccccc12)c1cccc2ccccc12 (some centres unmarked) [Compound No. 59] |
| 51.6% | O=C(N[C@@H](CCCNC1CCCc2cccnc21)C(=O)NCc1cccc2ccccc12)c1ccc(CNC2CCCc3cccnc32)cc1 (stereo partly drawn) [Compound No. 64, (2S)-2-(4-((5,6,7,8-tetrahydroquinolin-8-yl)aminomethyl)benzoylamino)-5-((5,6,7,8-tetrahydroquinolin-8-yl)amino)valerate 1-naphthalenemethylamide] |
| 94.0% | C[C@H](NC(=O)[C@H](CCCNC1CCCc2cccnc21)NC(=O)c1ccc(CNCc2ccccn2)cc1)c1cccc2ccccc12 (stereo partly drawn) [Compound No. 91, (2S)-2-(4-(N-2-picolylaminomethyl)benzoyl)amino-5-(5,6,7,8-tetrahydroquinolin-8-yl)amino valerate(1′S)-1′-(1-naphthyl)ethylamide] |
| 100.0% | C[C@H](NC(=O)[C@H](CCCNC(=N)N)NC(=O)c1ccc(CNCc2ncc[nH]2)cc1)c1cccc2ccccc12 [Compound No. 95] |

Same assay, conditions: 0.1 μM test material, ligand 125I-SDF-1α, 2 hours under ice cold condition, read-out: inhibition rate (binding-inhibition % at 0.1 μM)

| inhibition at 0.1 µM | Structure (SMILES) |
| --- | --- |
| 10% | c1cc(CN2CCCNCCNCCCNCC2)ccc1CN1CCCNCCNCCCNCC1 [AMD3100, reference compound] |
